Laboratory results published in ChEMBL document CHEMBL1201862, “PubChem BioAssay data set” (2004).
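Results reflect a 48-hour exposure of cells in 96-well plates to compound at five concentrations. Here, GI50 denotes the concentration required for 50% inhibition of growth.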 Calls of active or inactive are those of the source. Rule as the data show it: active = GI50 up to about 1.1 µM and inactive = higher.

Tests used:
Experiment in all cases: NCI-60 cell line screen, 48 h
SNB-19 = tested on: SNB-19
NCI-H522 = tested on: NCI-H522
T47D = tested on: T47D
NCI-H226 = tested on: NCI-H226
SN12C = tested on: SN12C
PC-3 = tested on: PC-3
SW-620 = tested on: SW-620
OVCAR-3 = tested on: OVCAR-3
SF-295 = tested on: SF-295
ACHN = tested on: ACHN
KM12 = tested on: KM12
MDA-MB-231 = tested on: MDA-MB-231
RPMI-8226 = tested on: RPMI-8226
Hs-578T = tested on: Hs-578T
COLO 205 = tested on: COLO 205
DU-145 = tested on: DU-145
MDA-N = tested on: MDA-N
TK-10 = tested on: TK-10
SK-MEL-28 = tested on: SK-MEL-28
OVCAR-8 = tested on: OVCAR-8
Malme-3M = tested on: Malme-3M
EKVX = tested on: EKVX
LOX IMVI = tested on: LOX IMVI
A498 = tested on: A498
SK-MEL-2 = tested on: SK-MEL-2
BT-549 = tested on: BT-549
SK-OV-3 = tested on: SK-OV-3
MOLT-4 = tested on: MOLT-4
UO-31 = tested on: UO-31
MCF7 = tested on: MCF7
HOP-92 = tested on: HOP-92
CCRF-CEM = tested on: CCRF-CEM
MDA-MB-435 = tested on: MDA-MB-435
U-251 = tested on: U-251
NCI-H23 = tested on: NCI-H23
OVCAR-5 = tested on: OVCAR-5
SK-MEL-5 = tested on: SK-MEL-5
786-0 = tested on: 786-0
HOP-62 = tested on: HOP-62
SF-268 = tested on: SF-268
CAKI-1 = tested on: CAKI-1
HCT-116 = tested on: HCT-116
IGROV-1 = tested on: IGROV-1
A549 = tested on: A549
SR = tested on: SR
M14 = tested on: M14
HCT-15 = tested on: HCT-15
SNB-75 = tested on: SNB-75
K562 = tested on: K562
HT-29 = tested on: HT-29
UACC-257 = tested on: UACC-257
HL-60 = tested on: HL-60
HCC 2998 = tested on: HCC 2998
OVCAR-4 = tested on: OVCAR-4
NCI/ADR-RES = tested on: NCI/ADR-RES
UACC-62 = tested on: UACC-62
RXF 393 = tested on: RXF 393
NCI-H460 = tested on: NCI-H460
SF-539 = tested on: SF-539

## CCCCC[C@H](O)[C@H](C)C=C1SCCCS1
SNB-19
  GI50: > 100 µM (inactive)
NCI-H522
  GI50: > 100 µM (inactive)
T47D
  GI50: 43.2 µM (inactive)
NCI-H226
  GI50: > 100 µM (inactive)
SN12C
  GI50: > 100 µM (inactive)
PC-3
  GI50: > 100 µM (inactive)
SW-620
  GI50: > 100 µM (inactive)
OVCAR-3
  GI50: > 100 µM (inactive)
SF-295
  GI50: > 100 µM (inactive)
ACHN
  GI50: > 100 µM (inactive)
KM12
  GI50: > 100 µM (inactive)
MDA-MB-231
  GI50: > 100 µM (inactive)
RPMI-8226
  GI50: > 100 µM (inactive)
Hs-578T
  GI50: > 100 µM (inactive)
COLO 205
  GI50: > 100 µM (inactive)
DU-145
  GI50: > 100 µM (inactive)
MDA-N
  GI50: > 100 µM (inactive)
TK-10
  GI50: > 100 µM (inactive)
SK-MEL-28
  GI50: > 100 µM (inactive)
OVCAR-8
  GI50: > 100 µM (inactive)
Malme-3M
  GI50: > 100 µM (inactive)
EKVX
  GI50: > 100 µM (inactive)
LOX IMVI
  GI50: > 100 µM (inactive)
A498
  GI50: > 100 µM (inactive)
SK-MEL-2
  GI50: > 100 µM (inactive)
BT-549
  GI50: > 100 µM (inactive)
SK-OV-3
  GI50: > 100 µM (inactive)
MOLT-4
  GI50: > 100 µM (inactive)
UO-31
  GI50: > 100 µM (inactive)
MCF7
  GI50: > 100 µM (inactive)
HOP-92
  GI50: > 100 µM (inactive)
CCRF-CEM
  GI50: > 100 µM (inactive)
MDA-MB-435
  GI50: > 100 µM (inactive)
U-251
  GI50: > 100 µM (inactive)
NCI-H23
  GI50: > 100 µM (inactive)
OVCAR-5
  GI50: > 100 µM (inactive)
SK-MEL-5
  GI50: > 100 µM (inactive)
786-0
  GI50: > 100 µM (inactive)
HOP-62
  GI50: > 100 µM (inactive)
SF-268
  GI50: > 100 µM (inactive)
CAKI-1
  GI50: > 100 µM (inactive)
HCT-116
  GI50: > 100 µM (inactive)
IGROV-1
  GI50: > 100 µM (inactive)
A549
  GI50: > 100 µM (inactive)
SR
  GI50: > 100 µM (inactive)
M14
  GI50: > 100 µM (inactive)
HCT-15
  GI50: > 100 µM
SNB-75
  GI50: > 100 µM (inactive)
K562
  GI50: > 100 µM (inactive)
HT-29
  GI50: > 100 µM (inactive)
UACC-257
  GI50: > 100 µM (inactive)
HL-60
  GI50: > 100 µM (inactive)
HCC 2998
  GI50: > 100 µM (inactive)
OVCAR-4
  GI50: > 100 µM (inactive)
NCI/ADR-RES
  GI50: > 100 µM (inactive)
UACC-62
  GI50: > 100 µM (inactive)
RXF 393
  GI50: > 100 µM (inactive)

## COc1cc(C)cc2c1C(=O)C(NC(C)=O)=CC2=O
SNB-19
  GI50: > 100 µM (inactive)
NCI-H522
  GI50: > 100 µM (inactive)
T47D
  GI50: 59.3 µM (inactive)
NCI-H226
  GI50: > 100 µM (inactive)
SN12C
  GI50: > 100 µM (inactive)
PC-3
  GI50: > 100 µM (inactive)
SW-620
  GI50: > 100 µM (inactive)
OVCAR-3
  GI50: > 100 µM (inactive)
SF-295
  GI50: > 100 µM (inactive)
ACHN
  GI50: > 100 µM (inactive)
KM12
  GI50: > 100 µM (inactive)
MDA-MB-231
  GI50: 98.4 µM (inactive)
RPMI-8226
  GI50: > 100 µM (inactive)
Hs-578T
  GI50: 55.1 µM (inactive)
COLO 205
  GI50: > 100 µM (inactive)
DU-145
  GI50: > 100 µM (inactive)
MDA-N
  GI50: 18.1 µM (inactive)
TK-10
  GI50: > 100 µM (inactive)
SK-MEL-28
  GI50: > 100 µM (inactive)
OVCAR-8
  GI50: > 100 µM (inactive)
Malme-3M
  GI50: > 100 µM (inactive)
EKVX
  GI50: > 100 µM (inactive)
NCI-H460
  GI50: > 100 µM (inactive)
A498
  GI50: > 100 µM (inactive)
SK-MEL-2
  GI50: > 100 µM (inactive)
BT-549
  GI50: > 100 µM (inactive)
SK-OV-3
  GI50: > 100 µM (inactive)
MOLT-4
  GI50: 28.2 µM (inactive)
UO-31
  GI50: > 100 µM (inactive)
MCF7
  GI50: 67.1 µM (inactive)
HOP-92
  GI50: 99.8 µM (inactive)
CCRF-CEM
  GI50: 34.3 µM (inactive)
MDA-MB-435
  GI50: 17.3 µM (inactive)
U-251
  GI50: > 100 µM (inactive)
NCI-H23
  GI50: > 100 µM (inactive)
OVCAR-5
  GI50: > 100 µM (inactive)
SK-MEL-5
  GI50: > 100 µM (inactive)
786-0
  GI50: > 100 µM (inactive)
HOP-62
  GI50: > 100 µM (inactive)
SF-539
  GI50: > 100 µM (inactive)
SF-268
  GI50: > 100 µM (inactive)
CAKI-1
  GI50: > 100 µM (inactive)
HCT-116
  GI50: > 100 µM (inactive)
IGROV-1
  GI50: > 100 µM (inactive)
A549
  GI50: > 100 µM (inactive)
SR
  GI50: 55.1 µM (inactive)
M14
  GI50: > 100 µM (inactive)
HCT-15
  GI50: > 100 µM
SNB-75
  GI50: 45.7 µM (inactive)
K562
  GI50: 43.1 µM (inactive)
HT-29
  GI50: > 100 µM (inactive)
UACC-257
  GI50: 57.4 µM (inactive)
HL-60
  GI50: 23.3 µM (inactive)
HCC 2998
  GI50: > 100 µM (inactive)
OVCAR-4
  GI50: 24.6 µM (inactive)
NCI/ADR-RES
  GI50: > 100 µM (inactive)
UACC-62
  GI50: 58.7 µM (inactive)
RXF 393
  GI50: > 100 µM (inactive)
